# Where two headings read alike, the source gives them in different places.
# How the values were obtained:
# [1] = system: insulin secretion; details: at comparable dosages; cited from earlier work
# [2] = maximal 200 mg/day divided in three dosages, eight weeks, 24 hyperinsulinemic patients; placebo 5.0 kg; cited from earlier work
# [3] = Plasma Diazoxide level by HPLC/UV; type: in vivo; details: male, human, at six months, mean daily dose 600±54 mg (5.7±0.5 mg/kg), oral, three times a day, read-out: plasma DZX level
# Text: Diazoxide was taken at t−30.
# [4] = 8-week weight-loss diet, hyperinsulinaemic obese subjects; cited from earlier work
# [5] = system: blood glucose and insulin levels; details: about 0.4 to about 0.8 mg/kg body weight before each meal; subjects with postprandial hyperglycemia and reactive hypoglycemia; cited from earlier work
# [6] = system: plasma insulin levels; details: one week, cited from earlier work
# [7] = system: plasma insulin and glucose levels; test: Standardised 500 kCal meal test before and after six months of Diazoxide: plasma glucose and insulin; type: in vivo, human; parameters: Whole Body Insulin Sensitivity: unit not given here
# [8] = for Weight: 14 obese men after 6 months oral Diazoxide (mean 600±54 mg/day), mean ± SE, baseline 115.1 ± 3.4; for Waist circumference: baseline 116.9 ± 1.4
# Method: All subjects received were explained the physiological principle of this study. They also received dietary advice to reduce caloric intake to the calculated basal requirements for ideal body weight (based on the Harrison-Bennedict equation) and the instruction to increase walking exercise to at least 30 minutes a day. All subjects were allowed to do more physical exercise; the amount of daily physical exercise was not recorded. All subjects were instructed how to perform home glucose measurements (HGM). Blood samples were taken in the fasting state, (a) 2 hours after breakfast, just before lunch, (b) 2 hours after lunch, just before dinner, (c) 2 hours after dinner, at bedtime, and (d) at 3 am.
# Baseline measurements included body weight, body height, abdominal circumference, body composition by total body dual energy X-ray absorptiometry (DEXA), supine and upright blood pressure, HGM for two days and the assessment of serum glucose levels and serum insulin levels in response to a standarised test meal. […] Venous blood samples were taen through a venous line inserted into the forearm at −30, 0, 30, 45, 60, 90, 120, 180, 240 and 300 minutes.
# After completion of all baseline measurements, the subjects started Diazoxide 50 mg (three times a day) which was taken before each meal. Subsequently, the outpatient clinic was visited every month where the following data were recorded: body weight, abdominal circumference, supine and upright blood pressure, the results of a two-day, 8-point HGM performed in the week preceding the visit and adverse effects. Every visit, the daily Diazoxide dose was increased by 3×50 mg until a maximum of 300 mg (three times a day) was reached or until adverse side effects occurred. The Diazoxide dose was not increased if clinically relevant edema persisted for ore than a month, if upright systolic blood pressure was <110 mm Hg, if upright diastolic blood pressure was <70 mm Hg, or if fasting home glucose level was >7 nmol/l, or non-fasting home glucose level was >11 nmol/l.
# After six months of treatment, all measurements were repeated including the meal test. Diazoxide was taken at t−30. Blood samples taken during the meal test at t120 were also analysed for Diazoxide levels. […] The results of total body DEXA were expressed as kg lean body mass, fat mass and bone mass. Normal values for serum glucose levels and serum insuli levels during the test meal were obtained by performing this test in ten healthy, age-matched, non-obese men (BMI about 20 to about 25 kg/m^2).
# All data are shown as mean values±standard error (SE). The paired t-test was used to analyse the response to Diazoxide treatment, employing the Bonferoni correction for multiple comparisons. A p-value of less than 0.05 was considered to be statistically significant.
# [9] = cited from earlier work
# [10] = literature clinical trials; cited from earlier work
# [11] = oral 300 mg per day divided in three dosages
# [12] = DEXA, 6 months vs baseline, P<0.001
# 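Throughout, for change of LDL cholesterol: obese men given oral Diazoxide before meals with dose raised monthly up to 300 mg three times daily, plus diet and walking advice, measured at baseline and after six months.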
# 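Throughout, for change of systolic blood pressure: obese men given oral Diazoxide before meals with dose raised monthly up to 300 mg three times daily, plus diet and walking advice, measured at baseline and after six months.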
# 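Throughout, for decrease of diastolic blood pressure: obese men given oral Diazoxide before meals with dose raised monthly up to 300 mg three times daily, plus diet and walking advice, measured at baseline and after six months.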
# 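Throughout, for increase of adiponectin levels: obese men given oral Diazoxide before meals with dose raised monthly up to 300 mg three times daily, plus diet and walking advice, measured at baseline and after six months.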
smiles,measurement,setting,value
"CNC(=NS(=O)(=O)c1ccc(Cl)cc1)N1C[C@H](c2ccccc2)C(c2ccc(Cl)cc2)=N1 [Compound A, (4S)-3-(4-chlorophenyl)-N′-[(4-chlorophenyl)sulfonyl]-N-methyl-4-phenyl-4,5-dihydro-1-H-pyrazole-1-carboximidamide]",inhibiting insulin secretion compared with Diazoxide,[1],more effective than Diazoxide
"CC1=NS(=O)(=O)c2cc(Cl)ccc2N1 [Diazoxide, 7-chloro-3-methyl-4H-1,2,4-benzothiadiazine 1,1-dioxide]",weight loss,[2],9.8 kg
same,concentration at 150 min,[3],50000 ± 5800 ng/mL
same,effect on weight loss,[4],No effect
same,effect on blood glucose and insulin levels,[5],effective to normalize blood glucose and insulin levels
same,effect on fasting or postprandial glucose levels,[6]; [11],without affecting fasting or postprandial glucose levels
same,reduction of plasma insulin levels,[6]; [11],about 20%
same,effect on plasma glucose and insulin levels,[6]; oral 150 and 225 mg per day divided in three dosages,no significant effect
same,reduction of AUCIns,"[7]; 6 months vs baseline, P<0.001",63%
same,reduction of fasting insulin levels,"[7]; 6 months vs baseline, P<0.001",65%
same,reduction of post-meal insulin peak levels,"[7]; 6 months vs baseline, P<0.001",62%
same,increase of fasting glucose,"[7]; 6 months vs baseline, P<0.01",0.8 ± 0.3 mmol/L
same,rise of AUCGluc,"[7]; 6 months vs baseline, P<0.02",29%
same,increase of peak glucose,"[7]; 6 months vs baseline, P=0.06",1.4 ± 0.7 mmol/L
same,increase of whole body insulin sensitivity,"[7]; 6 months vs baseline, printed 95% CI: 60-145%, P<0.001",209%
same,Whole Body Insulin Sensitivity,"[7]; after 6 months Diazoxide, baseline 3.0 ± 0.3, P<0.001",8.8 ± 1.2
same,Fasting glucose,"[7]; after 6 months Diazoxide, baseline 5.5 ± 0.2, P<0.01",6.3 ± 0.3 mmol/L
same,Fasting Insulin,"[7]; after 6 months Diazoxide, baseline 18.0 ± 2.3, P<0.001",5.6 ± 0.7 mU/L
same,Peak glucose,"[7]; meal test after 6 months Diazoxide, baseline 8.4 ± 0.3, NS",9.8 ± 0.7 mmol/L
same,AUC insulin,"[7]; meal test after 6 months Diazoxide, baseline 16.6 ± 2.1, P<0.001",5.4 ± 0.4 mU · 10^−3/L · min
same,Peak Insulin,"[7]; meal test after 6 months Diazoxide, baseline 124 ± 17, P<0.001",35 ± 4 mU/L
same,change of LDL cholesterol,[8]; 6 months vs baseline,did not change significantly
same,change of systolic blood pressure,[8]; 6 months vs baseline,did not change
same,decrease of diastolic blood pressure,"[8]; 6 months vs baseline, 95% CI: 6.5-15.4 mm Hg, P<0.001",10.9±2.3 mm Hg
same,increase of adiponectin levels,"[8]; 6 months vs baseline, P<0.001",100±17%
same,increase of HbAlc,"[8]; 6 months vs baseline, P<0.02",0.5 % points
same,main dose limiting events,"[8]; 14 men, six months, 300 to 900 mg/day, other adverse effects not observed",Hyperglycaemia (n=4) and edema (n=8)
same,Weight,[8]; P<0.001,105.7 ± 3.5 kg
same,Weight,"[8]; P<0.001, listed as DZX",105.7 ± 3.8 kg
same,Bone Mass,"[8]; DEXA after 6 months Diazoxide, baseline 3.35 ± 0.14, NS",3.47 ± 0.11 kg
same,Fat Mass,"[8]; DEXA after 6 months Diazoxide, baseline 40.1 ± 1.8, P<0.001",30.7 ± 2.1 kg
same,Soft Tissue LBM,"[8]; DEXA after 6 months Diazoxide, baseline 70.2 ± 2.0, NS",70.6 ± 2.4 kg
same,change in soft tissue lean body mass or bone mass,"[8]; DEXA, 6 months vs baseline",without a concomitant change
same,change of total body fat mass,[8]; [12],−23.3%
same,decrease of total body fat mass,[8]; [12],9.5 ± 1.9 kg
same,plasma insulin level at which substantial loss of body fat (decrease of 10 kg or more) occurred,"[8]; FIG. 5, fasting insulin at 6 months, mean DZX dose in this subgroup 630±56 mg, about 30 pmol/L",below 4.5 mU/L
same,Urate,"[8]; after 6 months Diazoxide, baseline 0.37 ± 0.01, P<0.02",0.32 ± 0.02 mmol/L
same,HDL-Cholesterol,"[8]; after 6 months Diazoxide, baseline 1.12 ± 0.07, P<0.05",1.25 ± 0.09 mmol/L
same,Triglycerides,"[8]; after 6 months Diazoxide, baseline 2.17 ± 0.26, P<0.001",1.08 ± 0.13 mmol/L
same,LDL-Cholesterol,"[8]; after 6 months Diazoxide, baseline 3.19 ± 0.32, NS",2.97 ± 0.23 mmol/L
same,HbA1c,"[8]; after 6 months Diazoxide, baseline 5.4 ± 0.1, P<0.02",5.9 ± 0.2%
same,Adiponectin,"[8]; after 6 months Diazoxide, baseline 6.4 ± 0.5, P<0.001",12.5 ± 1.2 mg/L
same,BMI,"[8]; after 6 months Diazoxide, baseline 33.8 ± 0.5, P<0.001",31.0 ± 0.7 kg/m^2
same,Diastolic BP,"[8]; after 6 months Diazoxide, baseline 85.8 ± 2.1, P<0.001",74.9 ± 2.1 mmHg
same,Waist circumference,"[8]; after 6 months Diazoxide, P<0.001",107.7 ± 2.2 cm
same,Waist circumference,"[8]; after 6 months Diazoxide, P<0.001, listed as DZX",107.7±2.2 cm
same,Systolic BP,"[8]; after 6 months Diazoxide, baseline 128.8 ± 3.2, NS",128.8 ± 3.0 mmHg
same,Glucosuria in fasting morning urine samples,[8]; during six months of treatment,not observed
same,discontinuation because of side-effects,[8]; of eighteen obese men included,"two men stopped because of side-effects (rash and edema, respectively)"
same,mean weight loss,[8]; subgroup with weight loss between 5 and 10% (4/14 men),6.7±0.5%
same,mean weight loss,[8]; subgroup with weight loss less than 5% (5/14 men),3.1±0.8%
same,mean weight loss,[8]; subgroup with weight loss more than 10% (5/14 men),15.7±0.7%
same,plasma level,"[9]; after six months, mean dosage about 585 mg/day",about 49 mg/l
same,body weight,"[9]; after six months, mean dosage about 585 mg/day, from about 114 kg",about 103 kg
same,tolerability of higher dosages,[9]; dose raised monthly from 150 to ultimately 900 mg/day,"generally not tolerated due to side effects, in particular hyperglycaemia and edema"
CCCCCCCCCCC[C@@H](C[C@@H]1OC(=O)[C@H]1CCCCCC)OC(=O)[C@H](CC(C)C)NC=O [Orlistat],(placebo-subtracted) net weight loss,[10],~3 kg
Cc1c(C(=O)NN2CCCCC2)nn(-c2ccc(Cl)cc2Cl)c1-c1ccc(Cl)cc1 [Rimonabant],(placebo-subtracted) net weight loss,[10],about 6 kg
CC(C)CC(N(C)C)C1(c2ccc(Cl)cc2)CCC1 (stereo not shown) [Sibutramine],(placebo-subtracted) net weight loss,[10],about 5 kg
